Laboratory results from patent US12629387B2, “Composition of antiviral agent for use in prophylactic or post-exposure treatment of infectious or respiratory diseases” (InspirMed Corp., priority 2020, dated 2026).

Columns and labels:
[1] = Pharmacokinetics and tissue distribution study of HCQ in SD rats after single-dose IV/IT Free HCQ or IT TLC19 (Study No. PK20021); conditions: for concentration at 24 h / AUC(0-t) / Cmax: Sprague-Dawley, rat, in vivo; for concentration at 24 h: 0.59 mg/animal; for AUC(0-t) / Cmax: 0.59 mg; for Cmax: Cmax of HCQ; for Cmax / Tmax of HCQ / AUC0-72 of HCQ: Free HCQ, 0.590 mg/animal; for Tmax of HCQ: median; for mean HCQ concentration in lung, starting value of decline: start of the first 24 hours post-dose
[2] = tested on: SARS-CoV-infected human airway epithelial (HAE) cells; conditions: read-out: in vitro antiviral EC50; cited from earlier work

`CCN(CCO)CCCC(C)Nc1ccnc2cc(Cl)ccc12` (stereo not drawn) [Free HCQ, hydroxychloroquine] gave a concentration at 24 h [1] of 2160 ng/g, an AUC(0-t) ([1]; inhaled or intranasal) of 2260 ng·h/mL and a Cmax ([1]; inhaled or intranasal, rat blood, IT administration) of 477 ng/mL. For the same molecule, the Cmax ([1]; inhaled or intranasal, rat heart, IT administration) was 3800 ng/g, the Cmax ([1]; inhaled or intranasal, rat lung, IT administration) was 47800 ng/g and the AUC(0-t) ([1]; iv) was 2330 ng·h/mL. It also gave a Cmax ([1]; iv, rat blood, IV injection) of 433 ng/mL, a Cmax ([1]; iv, rat heart, IV injection) of 4500 ng/g and a Cmax ([1]; iv, rat lung, IV injection) of 9400 ng/g. The concentration at 24 h ([1]; iv) was 3770 ng/g, the “overall systemic exposures (Cmax and AUC), IV group compared with IT group” value ([1]; rat blood, Free HCQ 0.590 mg/animal) was “similar” and the “Tmax of HCQ” value ([1]; rat blood, IT administration) was 15 min. The “Tmax of HCQ” value ([1]; rat blood, IV injection) was 15 min, the “AUC0-72 of HCQ” value ([1]; rat heart, IT administration) was 64.2 µg·h/g and the “Tmax of HCQ” value ([1]; rat heart, IT administration) was 15 min. The “AUC0-72 of HCQ” value ([1]; rat heart, IV injection) was 67.2 µg·h/g, the “Tmax of HCQ” value ([1]; rat heart, IV injection) was 15 min and the “mean HCQ concentration in lung, starting value of decline” value ([1]; rat lung, Free HCQ IT group) was 47.8 µg/g. For the same molecule, the “mean HCQ concentration in lung, starting value of decline” value ([1]; rat lung, Free HCQ IV group) was 9.4 µg/g, the “AUC0-72 of HCQ” value ([1]; rat lung, IT administration) was 329 µg·h/g and the “Tmax of HCQ” value ([1]; rat lung, IT administration) was 15 min. The “AUC0-72 of HCQ” value ([1]; rat lung, IV injection) was 252 µg·h/g and the “Tmax of HCQ” value ([1]; rat lung, IV injection) was 15 min.

In the case of `N#C[C@@]1(c2ccc3c(N)ncnn23)O[C@H](CO)[C@@H](O)[C@H]1O` [GS-441524, (2R,3R,4S,5R)-2-(4-aminopyrrolo[2,1-f][1,2,4]triazin-7-yl)-3,4-dihydroxy-5-(hydroxymethyl) oxolane-2-carbonitrile], the EC50 [2] is listed as 180 nM.
